Experimental data published in patent US8119362B2, “Method of screening for compounds that can be used for the treatment of respiratory conditions” (Centre National de la Recherche Scientifique—Cnrs, priority 2007, dated 2012).

Molecular target: T1, human TASK-2 channel (Homo sapiens, UniProt O95279)
T1 construct: expressed in transfected cells; host or cells: HEK cells (Human Embryonic Kidney cells)
T1 sequence (O95279 1-499): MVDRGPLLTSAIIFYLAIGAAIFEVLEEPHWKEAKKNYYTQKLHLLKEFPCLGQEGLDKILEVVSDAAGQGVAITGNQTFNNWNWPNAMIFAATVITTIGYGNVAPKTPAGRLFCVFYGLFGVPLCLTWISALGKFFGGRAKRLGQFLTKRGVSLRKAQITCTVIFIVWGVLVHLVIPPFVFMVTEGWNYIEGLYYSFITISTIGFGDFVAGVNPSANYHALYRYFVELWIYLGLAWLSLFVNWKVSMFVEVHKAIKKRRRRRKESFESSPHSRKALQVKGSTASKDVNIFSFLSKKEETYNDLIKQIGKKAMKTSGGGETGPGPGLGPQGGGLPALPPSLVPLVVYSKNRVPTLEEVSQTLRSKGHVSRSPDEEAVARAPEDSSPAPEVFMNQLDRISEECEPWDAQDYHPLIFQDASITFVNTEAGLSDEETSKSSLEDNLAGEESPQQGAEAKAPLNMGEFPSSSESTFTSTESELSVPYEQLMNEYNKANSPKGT
Test: Patch-clamp (whole cell) recording of TASK-2 current in transfected HEK cells
Format: cell-based
Settings: Doxapram at 0.9 mM in the external bath; HEK cells transfected with human TASK-2 (pIRES-CD8-hTASK2); voltage jumps; FIG. 4
Description: The following screening is used. HEK cells (Human Embryonic Kidney cells) are transfected with a plasmid containing complementary DNA from the gene of the human TASK-2 channel (pIRES-CD8-hTASK2) by the lipofectamine method. After 24 hours of culture, the TASK-2 currents are recorded using the voltage-clamp method (patch-clamp in whole cell configuration). The currents are activated by jumps in voltage from a rest potential at […] to variable values ranging from −80 to +45 mV.
The currents are recorded in whole cell configuration using an EPC-10 amplifier (HEKA). The <> pipette contains a solution of 95 K-gluconate, 30 mM KCl, 4.8 mM Na2HPO4, 1.2 mM NaH2PO4, 5 mM glucose, 2.38 mM MgCl2, 0.726 mM CaCl2, 1 mM EGTA, 3 mM ATP, pH 7.2. The external solution is a RINGER solution: 145 mM NaCl, 0.4 mM KH2PO4, 1.6 mM K2HPO4, 5 mM glucose, 1 mM MgCl2, 1.3 mM CaCl2, 5 mM HEPES, pH 7.4.
Different drugs may be applied at different concentrations by perfusion of the external bath and their effects are evaluated by the change in the currents compared with the control conditions.

CCN1CC(CCN2CCOCC2)C(c2ccccc2)(c2ccccc2)C1=O (stereo not shown) [Doxapram]
reduction of the TASK-2 current: 25%
